Measurements published in publication PMC9831253, “Sequence-Defined Heteromultivalent Precision Glycomacromolecules Bearing Sulfonated/Sulfated Nonglycosidic Moieties Preferentially Bind Galectin-3 and Delay Wound Healing of a Galectin-3 Positive Tumor Cell Line in an In Vitro Wound Scratch Assay” (Macromolecular bioscience, 2020).

Experiments:
[1] = target: T1, Gal-3 (galectin-3) (Homo sapiens, UniProt P17931); assay: ELISA-type inhibition of binding to asialofetuin; conditions: read-out: Gal-3 IC50 ± SD [× 10^-6M]^a)
T1 construct: gene LGALS3; ELISA by an established protocol of Elling and co-workers
T1 sequence (P17931 2-250): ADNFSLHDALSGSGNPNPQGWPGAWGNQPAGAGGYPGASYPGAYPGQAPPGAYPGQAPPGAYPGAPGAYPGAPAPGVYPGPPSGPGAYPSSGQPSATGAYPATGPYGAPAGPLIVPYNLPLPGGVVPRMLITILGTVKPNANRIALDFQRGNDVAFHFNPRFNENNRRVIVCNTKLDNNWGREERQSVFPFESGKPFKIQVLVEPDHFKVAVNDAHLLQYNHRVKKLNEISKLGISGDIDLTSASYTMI
Excerpt: ELISA-type inhibition of binding to asialofetuin on Gal-3 (galectin-3)

[2] = target: T2, Gal-1 (galectin-1) (Homo sapiens, UniProt P09382); assay: ELISA-type inhibition of binding to asialofetuin; conditions: read-out: Gal-1 IC50 ± SD [× 10^-6M]^a)
T2 construct: gene LGALS1; ELISA by an established protocol of Elling and co-workers
T2 sequence (P09382 2-135): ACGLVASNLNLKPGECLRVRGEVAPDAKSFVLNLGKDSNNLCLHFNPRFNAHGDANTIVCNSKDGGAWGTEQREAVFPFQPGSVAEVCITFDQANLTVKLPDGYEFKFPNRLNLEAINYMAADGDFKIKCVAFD
Excerpt: ELISA-type inhibition of binding to asialofetuin on Gal-1 (galectin-1)

[3] = target: T1, Gal-3 (galectin-3); assay: ELISA-type inhibition and SPR inhibition; type: biochemical; conditions: glucose non-binding control; PBS pH 7.5

Row | IC50 [1] | IC50 [2] | SMILES | no inhibition [3]
1 | 123 ± 3 µM | 296 ± 70 µM | CC(=O)NCCOCCOCCNC(=O)CCC(=O)NCCN(CCNC(=O)CCC(N)=O)C(=O)CCc1cn([C@@H]2O[C@H](CO)[C@@H](O[C@@H]3O[C@H](CO)[C@H](O)[C@H](O)[C@H]3O)[C@H](O)[C@H]2O)nn1 [1b, Lac(1)-2-Ac] | 
2 |  |  | CC(=O)NCCOCCOCCNC(=O)CCC(=O)NCCN(CCNC(=O)CCC(=O)NCCN(CCNC(=O)CCC(=O)NCCN(CCNC(=O)CCC(=O)NCCN(CCNC(=O)CCC(=O)NCCN(CCNC(=O)CCC(N)=O)C(=O)CCc1cn(CCO[C@H]2O[C@H](CO)[C@@H](O)[C@H](O)[C@H]2O)nn1)C(=O)CCC(=O)NCc1ccccc1)C(=O)CCc1cn(CCO[C@H]2O[C@H](CO)[C@@H](O)[C@H](O)[C@H]2O)nn1)C(=O)CCC(=O)NCc1ccccc1)C(=O)CCc1cn(CCO[C@H]2O[C@H](CO)[C@@H](O)[C@H](O)[C@H]2O)nn1 [10b, Glc(1,3,5)-Bz(2,4)-6-Ac] | nonbinding carbohydrate ligand (glucose, 9b-13b), we see no inhibition in both ELISA and SPR
3 |  |  | CC(=O)NCCOCCOCCNC(=O)CCC(=O)NCCN(CCNC(=O)CCC(=O)NCCN(CCNC(=O)CCC(=O)NCCN(CCNC(=O)CCC(=O)NCCN(CCNC(=O)CCC(=O)NCCN(CCNC(=O)CCC(N)=O)C(=O)CCc1cn(CCO[C@H]2O[C@H](CO)[C@@H](O)[C@H](O)[C@H]2O)nn1)C(=O)CCC(=O)Nc1ccc(N)cc1)C(=O)CCc1cn(CCO[C@H]2O[C@H](CO)[C@@H](O)[C@H](O)[C@H]2O)nn1)C(=O)CCC(=O)Nc1ccc(N)cc1)C(=O)CCc1cn(CCO[C@H]2O[C@H](CO)[C@@H](O)[C@H](O)[C@H]2O)nn1 [11b, Glc(1,3,5)-pNH2Ph(2,4)-6-Ac] | nonbinding carbohydrate ligand (glucose, 9b-13b), we see no inhibition in both ELISA and SPR
4 |  |  | CC(=O)NCCOCCOCCNC(=O)CCC(=O)NCCN(CCNC(=O)CCC(=O)NCCN(CCNC(=O)CCC(=O)NCCN(CCNC(=O)CCC(=O)NCCN(CCNC(=O)CCC(=O)NCCN(CCNC(=O)CCC(N)=O)C(=O)CCc1cn(CCO[C@H]2O[C@H](CO)[C@@H](O)[C@H](O)[C@H]2O)nn1)C(=O)CCC(=O)Nc1ccc(S(=O)(=O)O)cc1)C(=O)CCc1cn(CCO[C@H]2O[C@H](CO)[C@@H](O)[C@H](O)[C@H]2O)nn1)C(=O)CCC(=O)Nc1ccc(S(=O)(=O)O)cc1)C(=O)CCc1cn(CCO[C@H]2O[C@H](CO)[C@@H](O)[C@H](O)[C@H]2O)nn1 [12b, Glc(1,3,5)-pSO3H Ph(2,4)-6-Ac] | nonbinding carbohydrate ligand (glucose, 9b-13b), we see no inhibition in both ELISA and SPR
